The IC50 is the point on the concentration scale where inhibition reaches its midpoint.

Where a SMILES comes first, the peptide text is derived from it. Bridges are numbered along the chain shown (N, C = ends). [ ]: non-standard residue; d: D form. The star is where a group is joined. ξ: configuration not given here. Phe(4-CONH2) = NC(=O)c1ccc(C[C@H](N)C(=O)O)cc1; Phe(4-COOH) = N[C@@H](Cc1ccc(C(=O)O)cc1)C(=O)O; Asp(3,3-Me2) = CC(C)(C(=O)O)[C@H](N)C(=O)O; Bip = N[C@@H](Cc1ccc(-c2ccccc2)cc1)C(=O)O; Phe(3-Me) = Cc1cccc(C[C@H](N)C(=O)O)c1; Val(3-OH) = CC(C)(O)[C@H](N)C(=O)O; αMeF = C[C@](N)(Cc1ccccc1)C(=O)O; 3Pal = N[C@@H](Cc1cccnc1)C(=O)O; 4Pal = N[C@@H](Cc1ccncc1)C(=O)O; Cha = N[C@@H](CC1CCCCC1)C(=O)O; Cit = NC(=O)NCCC[C@H](N)C(=O)O; Thr(3ξ) = CC(O)[C@H](N)C(=O)O; dNle = CCCC[C@@H](N)C(=O)O; Carboxymethyl = O=C(O)C*; Nle = CCCC[C@H](N)C(=O)O; Orn = NCCC[C@H](N)C(=O)O; Pra = C#CC[C@H](N)C(=O)O; Dab = NCC[C@H](N)C(=O)O; Dap = NC[C@H](N)C(=O)O

The target in this assay is T1, human PD-1 / PD-L1-Ig binding on Jurkat cell line over-expressing human PD-1 (Jurkat-PD-1) (Homo sapiens, UniProt Q15116).
T1 construct: expressed in transfected cells; host or cells: Jurkat
T1 sequence (Q15116 25-288): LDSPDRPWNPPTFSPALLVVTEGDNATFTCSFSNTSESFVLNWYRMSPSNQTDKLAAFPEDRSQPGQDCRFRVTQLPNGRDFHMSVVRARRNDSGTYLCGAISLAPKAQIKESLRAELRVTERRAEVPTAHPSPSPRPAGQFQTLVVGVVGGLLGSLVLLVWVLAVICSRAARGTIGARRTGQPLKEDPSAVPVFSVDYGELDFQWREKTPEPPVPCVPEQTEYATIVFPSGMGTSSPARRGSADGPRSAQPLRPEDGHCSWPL
In words: Jurkat-PD-1 Cell Binding High-Content Screening Assay (CBA). The note with it: Jurkat-PD-1 cells, PE-labeled PD-L1-Ig 20 nM final; read-out: Jurkat HPD1_PDL1 IC50. Format: cell-based. The procedure, abridged:
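Jurkat-hPD-1 cells in DMEM with 10% fetal calf serum receive test compound and are held at 37° C for 2 h. PE-labeled PD-L1-Ig is added at 20 nM final and left for 1 hour. Cells are then fixed and Hoechst-stained, and binding is measured by imaging.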

For `CC(C)C[C@H]1NC(=O)[C@H](CCCN)NC(=O)[C@H](CCC(=O)O)NC(=O)[C@H](Cc2ccc(-c3ccccc3)cc2)NC(=O)[C@H](C(C)C)NC(=O)[C@H](Cc2c[nH]c3ccccc23)NC(=O)[C@H](CC(=O)O)NC(=O)[C@H](Cc2ccc(O)cc2)NC(=O)[C@H](CC(N)=O)NC(=O)CSC[C@@H](C(=O)N[C@@H](C)C(N)=O)NC(=O)[C@H]([C@@H](C)O)NC(=O)[C@H](C(C)C)NC(=O)[C@H](CC2CCCCC2)NC(=O)[C@H](CCN)NC1=O` [Compound 1424] ({CH2CO}-NYDWV[Bip]E[Orn][dL][Dab][Cha]VTCA-NH2; thioether N-14), the IC50 is 14.7 nM.

For the compound `CC(C)C[C@H]1NC(=O)[C@H](CCCN)NC(=O)[C@H](C(C)C)NC(=O)[C@H](Cc2ccc(-c3ccccc3)cc2)NC(=O)[C@H](C(C)C)NC(=O)[C@H](Cc2c[nH]c3ccccc23)NC(=O)[C@H](CC(=O)O)NC(=O)[C@H](Cc2ccc(OCC(=O)O)cc2)NC(=O)[C@H](Cc2ccc(OCC(=O)O)cc2)NC(=O)CSC[C@@H](C(=O)N[C@@H](C)C(N)=O)NC(=O)[C@H]([C@@H](C)O)NC(=O)[C@H](C(C)C)NC(=O)[C@H](Cc2ccc(O)cc2)NC(=O)[C@H](CCN)NC1=O` [Compound 1683] ({CH2CO}-Y(Carboxymethyl)Y(Carboxymethyl)DWV[Bip]V[Orn][dL][Dab]YVTCA-NH2; thioether N-14), the IC50 stood at 104 nM.

For the compound `CCCC[C@H]1NC(=O)[C@H](CCCN)NC(=O)[C@H](C(C)C)NC(=O)[C@H](Cc2ccc(-c3ccccc3)cc2)NC(=O)[C@H](C(C)C)NC(=O)[C@H](Cc2c[nH]c3ccccc23)NC(=O)[C@H](CC(=O)O)NC(=O)[C@H](Cc2ccc(O)cc2)NC(=O)[C@H](CC(N)=O)NC(=O)CSC[C@@H](C(=O)N[C@@H](C)C(N)=O)NC(=O)[C@H]([C@@H](C)O)NC(=O)[C@H](C(C)C)NC(=O)[C@H](CC2CCCCC2)NC(=O)[C@H](CCN)NC1=O` [Compound 1696] ({CH2CO}-NYDWV[Bip]V[Orn][dNle][Dab][Cha]VTCA-NH2; thioether N-14), the IC50 was 18.7 nM.

On to `Cc1cccc(C[C@@H]2NC(=O)[C@H](CC(=O)O)NC(=O)[C@H](Cc3ccc(OCC(=O)O)cc3)NC(=O)[C@H](Cc3cccnc3)NC(=O)CSC[C@@H](C(N)=O)NC(=O)[C@H]([C@@H](C)O)NC(=O)[C@H](C(C)C)NC(=O)[C@H](CC(C)C)NC(=O)[C@H](CCN)NC(=O)[C@@H](CC(C)C)NC(=O)[C@H](CCCN)NC(=O)[C@H](C(C)C)NC(=O)[C@H](Cc3ccc(-c4ccccc4)cc3)NC(=O)[C@H](C(C)C)NC2=O)c1` [Compound 1553] ({CH2CO}-[3Pal]Y(Carboxymethyl)D[Phe(3-Me)]V[Bip]V[Orn][dL][Dab]LVTC-NH2; thioether N-14), for which the IC50 was 26.9 nM.

As for `C#CC[C@H](NC(=O)[C@H](C)NC(=O)[C@@H]1CSCC(=O)N[C@@H](CCN)C(=O)N[C@@H](Cc2ccc(OCC(=O)O)cc2)C(=O)N[C@@H](CC(=O)O)C(=O)N[C@@H](Cc2cccc(C)c2)C(=O)N[C@@H](Cc2ccc(OCC(=O)O)cc2)C(=O)N[C@@H](Cc2ccc(-c3ccccc3)cc2)C(=O)N[C@@H](Cc2ccc(OCC(=O)O)cc2)C(=O)N[C@@H](CCCN)C(=O)N[C@H](CC(C)C)C(=O)N[C@@H](CCN)C(=O)N[C@@H](CC2CCCCC2)C(=O)N[C@@H](C(C)(C)O)C(=O)N[C@@H](CCCC)C(=O)N1)C(=O)O` [Compound 2696] ({CH2CO}-[Dab]Y(Carboxymethyl)D[Phe(3-Me)]Y(Carboxymethyl)[Bip]Y(Carboxymethyl)[Orn][dL][Dab][Cha][Val(3-OH)][Nle]CA[Pra]-OH; thioether N-14), the IC50 came out at 17.1 nM.

As to `C#CC[C@H](NC(=O)[C@H](CCN)NC(=O)[C@@H]1CSCC(=O)N[C@@H](CN)C(=O)N[C@@H](Cc2ccc(OCC(=O)O)cc2)C(=O)N[C@@H](CC(=O)O)C(=O)N[C@@H](Cc2cccc(C)c2)C(=O)N[C@@H](Cc2ccc(OCC(=O)O)cc2)C(=O)N[C@@H](Cc2ccc(-c3ccccc3)cc2)C(=O)N[C@@H](Cc2ccc(OCC(=O)O)cc2)C(=O)N[C@@H](CCCN)C(=O)N[C@H](CC(C)C)C(=O)N[C@@H](CCN)C(=O)N[C@@H](CC2CCCCC2)C(=O)N[C@@H](C(C)(C)O)C(=O)N[C@@H](CO)C(=O)N1)C(=O)O` [Compound 2316] ({CH2CO}-[Dap]Y(Carboxymethyl)D[Phe(3-Me)]Y(Carboxymethyl)[Bip]Y(Carboxymethyl)[Orn][dL][Dab][Cha][Val(3-OH)]SC[Dab][Pra]-OH; thioether N-14), the IC50 is 6.5 nM.

For the compound `C#CC[C@H](NC(=O)[C@H](CCN)NC(=O)[C@@H]1CSCC(=O)N[C@@H](CCN)C(=O)N[C@@H](Cc2ccc(C(=O)O)cc2)C(=O)N[C@@H](CC(=O)O)C(=O)N[C@@H](Cc2cccc(C)c2)C(=O)N[C@@H](Cc2ccc(C(=O)O)cc2)C(=O)N[C@@H](Cc2ccc(-c3ccccc3)cc2)C(=O)N[C@@H](Cc2ccc(C(=O)O)cc2)C(=O)N[C@@H](CCCN)C(=O)N[C@H](CC(C)C)C(=O)N[C@@H](CCN)C(=O)N[C@@H](CC2CCCCC2)C(=O)N[C@@H](C(C)(C)O)C(=O)N[C@@H](CO)C(=O)N1)C(N)=O` [Compound 2088] ({CH2CO}-[Dab][Phe(4-COOH)]D[Phe(3-Me)][Phe(4-COOH)][Bip][Phe(4-COOH)][Orn][dL][Dab][Cha][Val(3-OH)]SC[Dab][Pra]-NH2; thioether N-14), the IC50 was determined as 4.4 nM.

For `CC(C)C[C@H]1NC(=O)[C@H](CCCN)NC(=O)[C@H](CCCNC(N)=O)NC(=O)[C@H](Cc2ccc(-c3ccccc3)cc2)NC(=O)[C@H](C(C)C)NC(=O)[C@H](Cc2c[nH]c3ccccc23)NC(=O)[C@H](CC(=O)O)NC(=O)[C@](C)(Cc2ccccc2)NC(=O)[C@H](CN)NC(=O)CSC[C@@H](C(=O)N[C@@H](C)C(N)=O)NC(=O)[C@H]([C@@H](C)O)NC(=O)[C@H](C(C)C)NC(=O)[C@H](CC2CCCCC2)NC(=O)[C@H](CCN)NC1=O` [Compound 2137] ({CH2CO}-[Dap][αMeF]DWV[Bip][Cit][Orn][dL][Dab][Cha]VTCA-NH2; thioether N-14), the IC50 was 11.4 nM.

On to `CC(C)C[C@H]1NC(=O)[C@H](CCCN)NC(=O)[C@H](CCC(=O)O)NC(=O)[C@H](Cc2ccc(-c3ccccc3)cc2)NC(=O)[C@H](C(C)C)NC(=O)[C@H](Cc2c[nH]c3ccccc23)NC(=O)[C@H](CC(=O)O)NC(=O)[C@H](Cc2ccc(OCC(=O)O)cc2)NC(=O)[C@H](Cc2ccc(OCC(=O)O)cc2)NC(=O)CSC[C@@H](C(=O)N[C@@H](C)C(N)=O)NC(=O)[C@H]([C@@H](C)O)NC(=O)[C@H](C(C)C)NC(=O)[C@H](CC2CCCCC2)NC(=O)[C@H](Cc2cnc[nH]2)NC1=O` [Compound 1593], for which the 50% inhibitory concentration (IC50) came to 23 nM.

Take `C#CC[C@H](NC(=O)[C@H](CCN)NC(=O)[C@@H]1CSCC(=O)N[C@@H](CCCN)C(=O)N[C@@H](Cc2ccc(C(=O)O)cc2)C(=O)N[C@@H](CC(=O)O)C(=O)N[C@@H](Cc2cccc(C)c2)C(=O)N[C@@H](Cc2ccc(C(=O)O)cc2)C(=O)N[C@@H](Cc2ccc(-c3ccccc3)cc2)C(=O)N[C@@H](Cc2ccc(C(=O)O)cc2)C(=O)N[C@@H](CCCN)C(=O)N[C@H](CC(C)C)C(=O)N[C@@H](CCN)C(=O)N[C@@H](CC2CCCCC2)C(=O)N[C@@H](C(C)(C)O)C(=O)N[C@@H](CCCN)C(=O)N1)C(N)=O` [Compound 1864] ({CH2CO}-[Orn][Phe(4-COOH)]D[Phe(3-Me)][Phe(4-COOH)][Bip][Phe(4-COOH)][Orn][dL][Dab][Cha][Val(3-OH)][Orn]C[Dab][Pra]-NH2; thioether N-14): the IC50 was 16.5 nM.

As for `Cc1cccc(C[C@@H]2NC(=O)[C@H](CC(=O)O)NC(=O)[C@H](Cc3ccc(OCC(=O)O)cc3)NC(=O)[C@H](C(C)O)NC(=O)CSC[C@@H](C(=O)N[C@@H](CCN)C(N)=O)NC(=O)[C@H](CO)NC(=O)[C@H](C(C)(C)O)NC(=O)[C@H](CC3CCCCC3)NC(=O)[C@H](CCN)NC(=O)[C@@H](CC(C)C)NC(=O)[C@H](CCCN)NC(=O)[C@H](Cc3ccc(O)cc3)NC(=O)[C@H](Cc3ccc(-c4ccccc4)cc3)NC(=O)[C@H](Cc3ccc(C(N)=O)cc3)NC2=O)c1` (stereo partly drawn) [Compound 2633] ({CH2CO}-[Thr(3ξ)]Y(Carboxymethyl)D[Phe(3-Me)][Phe(4-CONH2)][Bip]Y[Orn][dL][Dab][Cha][Val(3-OH)]SC[Dab]-NH2; thioether N-14), the IC50 was 4 nM.

For the compound `Cc1cccc(C[C@@H]2NC(=O)[C@H](CC(=O)O)NC(=O)[C@H](Cc3ccc(C(=O)O)cc3)NC(=O)[C@H](Cc3ccc(OCC(=O)O)cc3)NC(=O)CSC[C@@H](C(=O)N[C@@H](C)C(N)=O)NC(=O)[C@H]([C@@H](C)O)NC(=O)[C@H](C(C)C)NC(=O)[C@H](CC3CCCCC3)NC(=O)[C@H](CCN)NC(=O)[C@@H](Cc3ccccc3)NC(=O)[C@H](CCCN)NC(=O)[C@H](CCC(=O)O)NC(=O)[C@H](Cc3ccc(-c4ccccc4)cc3)NC(=O)[C@H](C(C)C)NC2=O)c1` [Compound 1437] ({CH2CO}-Y(Carboxymethyl)[Phe(4-COOH)]D[Phe(3-Me)]V[Bip]E[Orn][dF][Dab][Cha]VTCA-NH2; thioether N-14), the IC50 amounted to 16.6 nM.

With `Cc1cccc(C[C@@H]2NC(=O)[C@H](CC(=O)O)NC(=O)[C@H](Cc3ccc(OCC(=O)O)cc3)NC(=O)[C@H](Cc3ccncc3)NC(=O)CSC[C@@H](C(=O)N[C@@H](CCN)C(N)=O)NC(=O)[C@H](C(C)(C)C(=O)O)NC(=O)[C@H](C(C)C)NC(=O)[C@H](CC3CCCCC3)NC(=O)[C@H](CCN)NC(=O)[C@@H](CC(C)C)NC(=O)[C@H](CCCN)NC(=O)[C@H](Cc3ccc(OCC(=O)O)cc3)NC(=O)[C@H](Cc3ccc(-c4ccccc4)cc3)NC(=O)[C@H](Cc3ccc(OCC(=O)O)cc3)NC2=O)c1` [Compound 2085] ({CH2CO}-[4Pal]Y(Carboxymethyl)D[Phe(3-Me)]Y(Carboxymethyl)[Bip]Y(Carboxymethyl)[Orn][dL][Dab][Cha]V[Asp(3,3-Me2)]C[Dab]-NH2; thioether N-14), the IC50 was found to be 70 nM.

Source of the values: patent US20250163104A1, “MACROCYCLIC IMMUNOMODULATORS” (priority 2021, published 2025).
